Experimental data: patent publication US20250154173A1 (Merck Sharp & Dohme LLC, priority 2023, published 2025)

biological target: T1, GST-RIPK1 (recombinant GST-RIPK1 kinase domain (residues 1-327)) (Homo sapiens, UniProt Q13546); assay: RIPK1-ADP-Glo Enzymatic Assay; format: biochemical; details: ten-point titration, top compound concentration of 100000 nM; 25 nM GST-RIPK1, 300 μM ATP, 3 μM dephosphorylated-MBP; 30 min pre-incubation, 150 min reaction
T1 construct: recombinant GST-RIPK1 kinase domain (residues 1-327) enzyme produced from baculovirus-transfected Sf21 cells; host or cells: baculovirus-transfected Sf21 insect cells
T1 sequence (Q13546 1-327): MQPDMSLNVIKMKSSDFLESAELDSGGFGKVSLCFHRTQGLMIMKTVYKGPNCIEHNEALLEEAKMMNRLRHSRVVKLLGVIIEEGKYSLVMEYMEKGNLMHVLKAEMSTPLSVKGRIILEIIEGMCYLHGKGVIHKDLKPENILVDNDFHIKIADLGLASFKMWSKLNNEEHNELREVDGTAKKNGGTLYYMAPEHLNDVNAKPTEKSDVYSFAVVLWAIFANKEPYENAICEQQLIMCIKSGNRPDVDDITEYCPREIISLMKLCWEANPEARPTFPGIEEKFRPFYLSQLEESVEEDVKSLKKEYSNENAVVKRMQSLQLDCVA
Summary of the method: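 GST-RIPK1 kinase domain (residues 1-327, Sf21-expressed), 25 nM, preincubated 30 min with compound, then reacted 150 min with 300 μM ATP and 3 μM dephosphorylated MBP in pH 7.3 Hepes buffer, 1% DMSO. ADP measured by ADP-Glo luminescence; EC50 from ten-point titration (top 100000 nM), four-parameter fit.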

Row | EC50 | SMILES
1 | 664 nM | Cc1cccnc1CO[C@H]1C[C@]2(C1)O[C@@H]1CC[C@@H](c3cnccn3)N1C2=O [Example 20.1, (5′S,7a′R)-3-((3-methylpyridin-2-yl)methoxy)-5′-(pyrazin-2-yl)tetrahydro-3′H-spiro[cyclobutane-1,2′-pyrrolo[2,1-b]oxazol]-3′-one]
2 | 196 nM | O=C1N2[C@@H](CC[C@H]2c2cnccn2)OC12CC(OCc1ccccn1)C2 (stereo partly drawn) [Example 20.2, (5′S,7a′R)-5′-(pyrazin-2-yl)-3-[(pyridin-2-yl)methoxy]tetrahydro-3′H-spiro[cyclobutane-1,2′-pyrrolo[2,1-b][1,3]oxazol]-3′-one]
3 | 126 nM | Cn1cc2cc(COC3CC4(C3)O[C@@H]3CC[C@@H](c5cnccn5)N3C4=O)ccc2n1 (stereo partly drawn) [Example 20.3, (5′S,7a′R)-3-[(2-methyl-2H-indazol-5-yl)methoxy]-5′-(pyrazin-2-yl)tetrahydro-3′H-spiro[cyclobutane-1,2′-pyrrolo[2,1-b][1,3]oxazol]-3′-one]
4 | 179 nM | O=C1N2[C@@H](CC[C@H]2c2cnccn2)OC12CC(OCc1ccnc3nncn13)C2 (stereo partly drawn) [Example 20.4, (5′S,7a′R)-5′-(pyrazin-2-yl)-3-[([1,2,4]triazolo[4,3-a]pyrimidin-5-yl)methoxy]tetrahydro-3′H-spiro[cyclobutane-1,2′-pyrrolo[2,1-b][1,3]oxazol]-3′-one]
5 | 74 nM | Cc1ncccc1COC1CC2(C1)O[C@@H]1CC[C@@H](c3cnccn3)N1C2=O (stereo partly drawn) [Example 20.5, (5′S,7a′R)-3-[(2-methylpyridin-3-yl)methoxy]-5′-(pyrazin-2-yl)tetrahydro-3′H-spiro[cyclobutane-1,2′-pyrrolo[2,1-b][1,3]oxazol]-3′-one]
6 | 86 nM | O=C1N2[C@@H](CC[C@H]2c2cnccn2)OC12CC(OCc1cccnc1C(F)(F)F)C2 (stereo partly drawn) [Example 20.6, (5′S,7a′R)-5′-(pyrazin-2-yl)-3-{[2-(trifluoromethyl)pyridin-3-yl]methoxy}tetrahydro-3′H-spiro[cyclobutane-1,2′-pyrrolo[2,1-b][1,3]oxazol]-3′-one]
7 | 86 nM | O=C1N2[C@@H](CC[C@H]2c2cnccn2)OC12CC(OCc1ccc3scnc3c1)C2 (stereo partly drawn) [Example 20.7, (5′S,7a′R)-3-[(1,3-benzothiazol-5-yl)methoxy]-5′-(pyrazin-2-yl)tetrahydro-3′H-spiro[cyclobutane-1,2′-pyrrolo[2,1-b][1,3]oxazol]-3′-one]
8 | 236 nM | N#CC1(c2ccc(COC3CC4(C3)O[C@@H]3CC[C@@H](c5cnccn5)N3C4=O)cc2)CC1 (stereo partly drawn) [Example 20.8, 1-[4-({[(5′S,7a′R)-3′-oxo-5′-(pyrazin-2-yl)tetrahydro-3′H-spiro[cyclobutane-1,2′-pyrrolo[2,1-b][1,3]oxazol]-3-yl]oxy}methyl)phenyl]cyclopropane-1-carbonitrile]
9 | 83 nM | Cn1ccc([C@@H]2CC[C@H]3OC4(CC(Oc5cncc(Cl)c5)C4)C(=O)N32)n1 (stereo partly drawn) [Example 20.9, (5′S,7a′R)-3-[(5-chloropyridin-3-yl)oxy]-5′-(1-methyl-1H-pyrazol-3-yl)tetrahydro-3′H-spiro[cyclobutane-1,2′-pyrrolo[2,1-b][1,3]oxazol]-3′-one]
10 | 255 nM | O=C1N2[C@H](O[C@]13C[C@@H](OCc1ccccc1)C3)[C@@H](O)C[C@H]2c1cnccn1 [Example 21.1, (1s,3S,5′S,7′S,7a′R)-3-(benzyloxy)-7′-hydroxy-5′-(pyrazin-2-yl)tetrahydro-3′H-spiro[cyclobutane-1,2′-pyrrolo[2,1-b]oxazol]-3′-one]
11 | 106 nM | O=C1N2[C@H](O[C@]13C[C@@H](OCc1ccccc1)C3)[C@H](O)C[C@H]2c1cnccn1 [Example 21.2, (1s,3S,5′S,7′R,7a′R)-3-(benzyloxy)-7′-hydroxy-5′-(pyrazin-2-yl)tetrahydro-3′H-spiro[cyclobutane-1,2′-pyrrolo[2,1-b]oxazol]-3′-one]
12 | 18 nM | O=C1N2[C@@H](CC[C@H]2c2cnccn2)O[C@]12C[C@@H](OCc1ccccc1Cl)C2 [Example 22.1, (1S,3S,5′S,7a′R)-3-((2-chlorobenzyl)oxy)-5′-(pyrazin-2-yl)tetrahydro-3′H-spiro[cyclobutane-1,2′-pyrrolo[2,1-b]oxazol]-3′-one]
13 | 33 nM | Cc1cc(Cl)cnc1COC1CC2(C1)O[C@@H]1CC[C@@H](c3cnccn3)N1C2=O (stereo partly drawn) [Example 22.3, (5′S,7a′R)-3-((5-chloro-3-methylpyridin-2-yl)methoxy)-5′-(pyrazin-2-yl)tetrahydro-3′H-spiro[cyclobutane-1,2′-pyrrolo[2,1-b]oxazol]-3′-one]
14 | 146 nM | O=C1N2[C@@H](CC[C@H]2c2cnccn2)OC12CC(OCc1cccs1)C2 (stereo partly drawn) [Example 22.4, (5′S,7a′R)-5′-(pyrazin-2-yl)-3-(thiophen-2-ylmethoxy)tetrahydro-3′H-spiro[cyclobutane-1,2′-pyrrolo[2,1-b]oxazol]-3′-one]
15 | 15 nM | O=C1N2[C@@H](CC[C@H]2c2cnccn2)OC12CC(OCc1cccc(Cl)c1)C2 (stereo partly drawn) [Example 22.6, (5′S,7a′R)-3-[(3-chlorophenyl)methoxy]-5′-(pyrazin-2-yl)tetrahydro-3′H-spiro[cyclobutane-1,2′-pyrrolo[2,1-b][1,3]oxazol]-3′-one]
16 | 37 nM | Cc1nnc(-c2ccc(COC3CC4(C3)O[C@@H]3CC[C@@H](c5cnccn5)N3C4=O)cc2)o1 (stereo partly drawn) [Example 22.9, (5′S,7a′R)-3-{[4-(5-methyl-1,3,4-oxadiazol-2-yl)phenyl]methoxy}-5′-(pyrazin-2-yl)tetrahydro-3′H-spiro[cyclobutane-1,2′-pyrrolo[2,1-b][1,3]oxazol]-3′-one]

Continued, compound first:

Row | SMILES | EC50
17 | N#Cc1cccc(OC2CC3(C2)O[C@@H]2CC[C@@H](c4cnccn4)N2C3=O)c1 (stereo partly drawn) [Example 19.15, 3-{[(5′S,7a′R)-3′-oxo-5′-(pyrazin-2-yl)tetrahydro-3′H-spiro[cyclobutane-1,2′-pyrrolo[2,1-b][1,3]oxazol]-3-yl]oxy}benzonitrile] | 18 nM
18 | N#Cc1cc(F)cc(OC2CC3(C2)O[C@@H]2CC[C@@H](c4cnccn4)N2C3=O)c1 (stereo partly drawn) [Example 19.16] | 18 nM
19 | O=C1N2[C@@H](CC[C@H]2c2cnccn2)OC12CC(Oc1ccccc1)C2 (stereo partly drawn) [Example 19.17, (5′S,7a′R)-3-phenoxy-5′-(pyrazin-2-yl)tetrahydro-3′H-spiro[cyclobutane-1,2′-pyrrolo[2,1-b][1,3]oxazol]-3′-one] | 21 nM
20 | O=C1N2[C@@H](CC[C@H]2c2cnccn2)OC12CC(Oc1cncc(Cl)c1)C2 (stereo partly drawn) [Example 19.18, (5′S,7a′R)-3-[(5-chloropyridin-3-yl)oxy]-5′-(pyrazin-2-yl)tetrahydro-3′H-spiro[cyclobutane-1,2′-pyrrolo[2,1-b][1,3]oxazol]-3′-one] | 23 nM
21 | O=C1N2[C@@H](CC[C@H]2c2cnccn2)OC12CC(OCc1csc3ncccc13)C2 (stereo partly drawn) [Example 19.19, (5′S,7a′R)-5′-(pyrazin-2-yl)-3-[(thieno[2,3-b]pyridin-3-yl)methoxy]tetrahydro-3′H-spiro[cyclobutane-1,2′-pyrrolo[2,1-b][1,3]oxazol]-3′-one] | 27 nM
22 | Cn1nccc1-c1cc(OC2CC3(C2)O[C@@H]2CC[C@@H](c4cnccn4)N2C3=O)ncn1 (stereo partly drawn) [Example 19.20, (5′S,7a′R)-3-{[6-(1-methyl-1H-pyrazol-5-yl)pyrimidin-4-yl]oxy}-5′-(pyrazin-2-yl)tetrahydro-3′H-spiro[cyclobutane-1,2′-pyrrolo[2,1-b][1,3]oxazol]-3′-one] | 13 nM
23 | O=C1N2[C@@H](CC[C@H]2c2cnccn2)OC12CC(Oc1cccnc1)C2 (stereo partly drawn) [Example 19.21, (5′S,7a′R)-5′-(pyrazin-2-yl)-3-[(pyridin-3-yl)oxy]tetrahydro-3′H-spiro[cyclobutane-1,2′-pyrrolo[2,1-b][1,3]oxazol]-3′-one] | 27 nM
24 | O=C1N2[C@@H](CC[C@H]2c2cnccn2)OC12CC(Oc1ccc(F)c(F)c1)C2 (stereo partly drawn) [Example 19.22, (5′S,7a′R)-3-(3,4-difluorophenoxy)-5′-(pyrazin-2-yl)tetrahydro-3′H-spiro[cyclobutane-1,2′-pyrrolo[2,1-b][1,3]oxazol]-3′-one] | 12 nM
